According to patent US20150018311A1, “THERAPEUTIC BORON-CONTAINING COMPOUNDS” (priority 2012, published 2015):

What was measured:
Format in all cases: cell-based
[1] = tested on: Mycobacterium tuberculosis (H37Rv); assay: Growth in liquid media in presence of test compound
[2] = tested on: Escherichia coli (ATCC 25922); assay: as above
[3] = tested on: Pseudomonas aeruginosa (ATCC 27853); assay: as above
[4] = tested on: Staphylococcus aureus (ATCC 25923); assay: as above
E. faecalis = assay: as above
Procedure: The strains were grown at 37° C. and after suitable cell concentrations had been reached, 100 μL of each cell suspension was added to a tube with growth media and test compound. Cultivation of the bacteria was then carried out in the presence of each test compound at 37° C. and the tubes examined for visible growth. The compounds were tested at concentrations of either 500 mg/l, 50 mg/l or 5 mg/l. This assay was repeated twice.
Some compounds were only tested against some test organisms. It will be appreciated that the charge of these molecules will depend on the environment, some of the Examples are shown with a suitable counter ion, some without.

[5] = tested on: Candida albicans (ATCC 90028); assay: as above
[6] = tested on: Streptococcus pyogenes (ATCC 19615); assay: as above
[7] = tested on: Candida albicans ATCC90028 (wild type); assay: Filter paper disc antifungal assay on agar plates; conditions: 5 mm disc, 37° C. 24 hours
Procedure: (§1) Compound 22 (the chloride salt) of table 1 was dissolved and the solution applied to a filter paper disc of diameter 5 mm. The filter paper discs were placed on plates containing the following strains of Candida albicans:
ATCC90028 (“wild type”, i.e. not resistant to nystatin or fluconazole)
(§2) The compound was applied at concentrations of 0.5, 1, 5, 10, 25 and 50 μg/ml. Nystatin and fluconazole at the same concentrations were applied in the same manner. […] All strains were tested at least three times.
(§3) Clearly, the higher the number, the greater the antifungal activity.

[8] = tested on: Candida albicans ATCC38247 (resistant to fluconazole); assay: Filter paper disc antifungal assay on agar plates; conditions: 5 mm disc, 37° C. 24 hours
Procedure: as §1
ATCC38247 (resistant to fluconazole)
as §2, §3

[9] = tested on: Candida albicans MYA576 (resistant to nystatin); assay: Filter paper disc antifungal assay on agar plates; conditions: 5 mm disc, 37° C. 24 hours
Procedure: as §1
MYA576 (resistant to nystatin).
as §2, §3

Structure (SMILES)	Growth in the presence of test compound, M. tuberculosis ([1]; 5 mg/L)	Growth in the presence of test compound, M. tuberculosis ([1]; 50 mg/L)	Growth in the presence of test compound, M. tuberculosis ([1]; 500 mg/L)	Growth in the presence of test compound, E. coli ([2]; 5 mg/L)	Growth in the presence of test compound, E. coli ([2]; 50 mg/L)	Growth in the presence of test compound, E. coli ([2]; 500 mg/L)	Growth in the presence of test compound, P. aeruginosa ([3]; 5 mg/L)	Growth in the presence of test compound, P. aeruginosa ([3]; 50 mg/L)	Growth in the presence of test compound, P. aeruginosa ([3]; 500 mg/L)	Growth in the presence of test compound, S. aureus ([4]; 5 mg/L)	Growth in the presence of test compound, S. aureus ([4]; 50 mg/L)	Growth in the presence of test compound, S. aureus ([4]; 500 mg/L)	Growth in the presence of test compound, C. albicans ([5]; 5 mg/L)	Growth in the presence of test compound, C. albicans ([5]; 50 mg/L)	Growth in the presence of test compound, C. albicans ([5]; 500 mg/L)	Growth in the presence of test compound, S. pyogenes ([6]; 5 mg/L)	Growth in the presence of test compound, S. pyogenes ([6]; 50 mg/L)	Growth in the presence of test compound, S. pyogenes ([6]; 500 mg/L)	also measured
CC1(C)C2CC3OB(CC(Cc4ccccc4)NC(=O)C(N)CCCCN)OC3(C)C1C2 (stereo not drawn) [Compound 1]	−	−	−	+	+	−	+	+	±	+	+	−							Growth in the presence of test compound, E. faecalis (E. faecalis; 5 mg/L): +; Growth in the presence of test compound, E. faecalis (E. faecalis; 50 mg/L): +; Growth in the presence of test compound, E. faecalis (E. faecalis; 500 mg/L): −
CC1(C)C2CC3OB(C(CNC(=O)C(N)CCCCN)Cc4ccc(OC(F)(F)F)cc4)OC3(C)C1C2.Cl.Cl (stereo not drawn) [Compound 53]	±	−	−	+	+	+	+	+	−	+	+	+	+	+	−	+	+	−	
CC1(C)C2CC3OB(CC(Cc4ccccc4)NC(=O)C(N)CCCCN)OC3(C)C1C2 (stereo not drawn) [Compound 54]	+	+	−	+	+	−	+	+	−	+	+	−	+	+	−	+	+	−	
CC1(C)C2CC3OB([C@@H](CNC(=O)[C@@H](N)Cc4ccccc4)Cc4ccc(OC(F)(F)F)cc4)O[C@]3(C)C1C2.Cl (stereo partly drawn) [Compound 55]	−	−	−	+	+	+	+	+	+	+	±	+	+	+	±	+	±	+	
C[C@H](N)C(=O)NC[C@@H](Cc1ccc(OC(F)(F)F)cc1)B1OC2CC3CC(C3(C)C)[C@@]2(C)O1.Cl (stereo partly drawn) [Compound 56]	+	−	−	+	+	+	+	+	+	+	±	+	+	±	±	+	−	+	
Cl.N[C@@H](Cc1ccccc1)C(=O)NC[C@@H](Cc1ccc(OC(F)(F)F)cc1)B(O)O [Compound 57]	+	−	−	+	+	±	+	+	−	+	+	+	+	+	−	+	+	−	
OC(Cn1cncn1)(Cn1cncn1)c1ccc(F)cc1F [Fluconazole, reference compound]																			diameter of the area which did not show any Candida growth ([7]; ATCC90028, 0.5 μg/ml): 7.33 millimeters; diameter of the area which did not show any Candida growth ([7]; ATCC90028, 1 μg/ml): 13.33 millimeters; diameter of the area which did not show any Candida growth ([7]; ATCC90028, 5 μg/ml): 21.33 millimeters; diameter of the area which did not show any Candida growth ([7]; ATCC90028, 10 μg/ml): 25.66 millimeters; diameter of the area which did not show any Candida growth ([7]; ATCC90028, 25 μg/ml): 30 millimeters; diameter of the area which did not show any Candida growth ([7]; ATCC90028, 50 μg/ml): 31.33 millimeters; diameter of the area which did not show any Candida growth ([8]; ATCC38247, 0.5 μg/ml): 5 millimeters; diameter of the area which did not show any Candida growth ([8]; ATCC38247, 1 μg/ml): 5 millimeters; diameter of the area which did not show any Candida growth ([8]; ATCC38247, 5 μg/ml): 5 millimeters; diameter of the area which did not show any Candida growth ([8]; ATCC38247, 10 μg/ml): 5 millimeters; diameter of the area which did not show any Candida growth ([8]; ATCC38247, 25 μg/ml): 5 millimeters; diameter of the area which did not show any Candida growth ([8]; ATCC38247, 50 μg/ml): 5 millimeters
C[C@@H]1[C@H](O)[C@@H](C)/C=C/C=C/CC/C=C/C=C/C=C/C=C/C(O[C@H]2O[C@H](C)[C@@H](O)[C@H](N)[C@@H]2O)CC2O[C@](O)(CC(O)C(O)CCC(O)CC(O)CC(O)CC(=O)O[C@H]1C)CC(O)C2C(=O)O (stereo partly drawn) [Nystatin, reference compound]																			diameter of the area which did not show any Candida growth ([7]; ATCC90028, 0.5 μg/ml): 6.25 millimeters; diameter of the area which did not show any Candida growth ([7]; ATCC90028, 1 μg/ml): 7.25 millimeters; diameter of the area which did not show any Candida growth ([7]; ATCC90028, 5 μg/ml): 9.25 millimeters; diameter of the area which did not show any Candida growth ([7]; ATCC90028, 10 μg/ml): 14.75 millimeters; diameter of the area which did not show any Candida growth ([7]; ATCC90028, 25 μg/ml): 19.25 millimeters; diameter of the area which did not show any Candida growth ([7]; ATCC90028, 50 μg/ml): 20.25 millimeters; diameter of the area which did not show any Candida growth ([9]; MYA576, 0.5 μg/ml): 5 millimeters; diameter of the area which did not show any Candida growth ([9]; MYA576, 1 μg/ml): 5 millimeters; diameter of the area which did not show any Candida growth ([9]; MYA576, 5 μg/ml): 5 millimeters; diameter of the area which did not show any Candida growth ([9]; MYA576, 10 μg/ml): 6.17 millimeters; diameter of the area which did not show any Candida growth ([9]; MYA576, 25 μg/ml): 7.33 millimeters; diameter of the area which did not show any Candida growth ([9]; MYA576, 50 μg/ml): 9 millimeters
